According to PubChem BioAssay AID266 (DTP/NCI, 2004):
Where “and” joins values, the source holds several entries; their conditions need not be identical. Equal entries are not always repeated. Records with an inconclusive call do not appear.

Tested on: Nude mice, LX-1 lung xenograft intrarenal, tumor weight T/C
Assay: NCI In Vivo Anticancer Drug Screen. Data for tumor model Human Lung LX-1 Xenograft (intrarenal inoculation) in NU/NU BALB/C (nude) mice
Details: endpoint: mean tumor weight change, higher = larger tumour
Method: The antitumor activity of compounds was measured in mice bearing transplantable tumors. Survival or tumor size were measured and the results are expressed as the measurement made in the treated group (T) divided by the measurement made in the vehicle treated control group (C). The tumor model used in this assay is Human Lung LX-1 Xenograft (intrarenal inoculation) in NU/NU BALB/C (nude) mice

[1] = dose: 75.0 mg/kg/injection, schedule: Q04DX003 (sc), vehicle: distilled water + Tween-80 + alcohol
[2] = dose: 150.0 mg/kg/injection, schedule: Q04DX003 (sc), vehicle: distilled water + Tween-80 + alcohol
[3] = dose: 50.0 mg/kg/injection, schedule: Q04DX003 (sc), vehicle: water
[4] = dose: 100.0 mg/kg/injection, schedule: Q04DX003 (sc), vehicle: water
[5] = dose: 100.0 mg/kg/injection, schedule: Q01DX010 (sc), vehicle: saline with Tween-80
[6] = dose: 200.0 mg/kg/injection, schedule: Q01DX010 (sc), vehicle: saline with Tween-80
[7] = dose: 50.0 mg/kg/injection, schedule: Q01DX010 (sc), vehicle: saline
[8] = dose: 300.0 mg/kg/injection, schedule: Q04DX003 (sc), vehicle: saline with Tween-80
[9] = dose: 600.0 mg/kg/injection, schedule: Q04DX003 (sc), vehicle: saline with Tween-80
[10] = dose: 1200.0 mg/kg/injection, schedule: Q04DX003 (sc), vehicle: saline with Tween-80
[11] = dose: 150.0 mg/kg/injection, schedule: Q04DX003 (sc), vehicle: saline with Tween-80

With `NC(=O)/C=C/C(=O)c1c(Cl)cccc1Cl` the T/C (dose: 9.0 mg/kg/injection, schedule: Q04DX003 (sc), vehicle: saline with Tween-80) was 83 % of control and the T/C (dose: 18.0 mg/kg/injection, schedule: Q04DX003 (sc), vehicle: saline with Tween-80) was 79 % of control.
`O=C(O)[C@H](Cc1ccccc1)N1C(=O)c2ccccc2C1=O` was tested, and the T/C (dose: 150.0 mg/kg/injection, schedule: Q04DX003 (ip), vehicle: DMSO) was 98 % of control, the T/C (dose: 300.0 mg/kg/injection, schedule: Q04DX003 (ip), vehicle: DMSO) was 58 % of control and the T/C (dose: 600.0 mg/kg/injection, schedule: Q04DX003 (ip), vehicle: DMSO) was 53 % of control.
In the case of `Cc1cc(NCCCCCCCCNc2cc(C)nc3cc(N(C)C)ccc23)c2ccc(N(C)C)cc2n1`, the T/C (dose: 37.5 mg/kg/injection, schedule: Q01DX010 (sc), vehicle: distilled water + Tween-80 + alcohol) is reported as 51 % of control, the T/C [1] is reported as 64 % of control and the T/C [2] is reported as 46 % of control. The T/C (dose: 300.0 mg/kg/injection, schedule: Q04DX003 (sc), vehicle: distilled water + Tween-80 + alcohol) was 13 % of control.
With `N#CC(OC1OC(COC2OC(CO)C(O)C(O)C2O)C(O)C(O)C1O)c1ccccc1` (stereo unspecified) the T/C (dose: 300.0 mg/kg/injection, schedule: Q04DX003 (sc), vehicle: saline) was 162 % of control, the T/C (dose: 600.0 mg/kg/injection, schedule: Q04DX003 (sc), vehicle: saline) was 115 % of control and the T/C (dose: 1200.0 mg/kg/injection, schedule: Q04DX003 (sc), vehicle: saline) was 193 % of control. For the same compound, the T/C (dose: 2400.0 mg/kg/injection, schedule: Q04DX003 (sc), vehicle: saline) was 158 % of control.
`COc1cccc2c1C(=O)c1c(O)c3c(c(O)c1C2=O)CC(O)(C(=O)CO)CC3OC1CC(N)C(O)C(C)O1` (stereo unspecified) was tested, and the T/C [3] was 86 % of control, the T/C [4] was 103 % of control and the T/C (dose: 200.0 mg/kg/injection, schedule: Q04DX003 (sc), vehicle: water) was 90 % of control. The T/C (dose: 400.0 mg/kg/injection, schedule: Q04DX003 (sc), vehicle: water) was 103 % of control.
`COc1cc(C[C@H]2c3cc(OC)c(OC)cc3CCN2C)c(Oc2cc3c(cc2OC)-c2c(OC)c(OC)cc4c2[C@H](C3)N(C)CC4)cc1OC` was tested, and the T/C (dose: 50.0 mg/kg/injection, schedule: Q01DX010 (sc), vehicle: saline with Tween-80) was 85 % of control, the T/C [5] was 107 % of control and the T/C [6] was 73 % of control. For the same compound, the T/C (dose: 400.0 mg/kg/injection, schedule: Q01DX010 (sc), vehicle: saline with Tween-80) was 90 % of control.
`C1CC[N-]CC1.[Cl][Pt+2][Cl].[NH-]C1CC1` was tested, and the T/C (dose: 25.0 mg/kg/injection, schedule: Q04DX003 (sc), vehicle: water) was 106 % of control, the T/C [3] was 71 % of control and the T/C [4] was 51 % of control.
With `Nc1cc2[nH]cnc2c(=O)[nH]1` the T/C (dose: 25.0 mg/kg/injection, schedule: Q01DX010 (sc), vehicle: saline) was 75 % of control and the T/C [7] was 89 % of control.
In the case of `CCOC(=O)c1cn(C)c2c1C(O)=C(C(=O)OC)CC(=O)N2`, the T/C [8] is reported as 99 % of control, the T/C [9] is reported as 55 % of control and the T/C [10] is reported as 111 % of control. The T/C (dose: 2400.0 mg/kg/injection, schedule: Q04DX003 (sc), vehicle: saline with Tween-80) was 154 % of control.
For `CCN(CC)Cc1cc2[nH]c3c4ccc(Cl)cc4ncc3c2cc1OC`, the T/C (dose: 75.0 mg/kg/injection, schedule: Q04DX003 (sc), vehicle: saline with Tween-80) was 73 % of control, the T/C [11] was 71 % of control and the T/C [8] was 86 % of control.
With `CN(C)c1ccc2c(NCCCCCCNc3ccnc4cc(N(C)C)ccc34)ccnc2c1` the T/C (dose: 37.5 mg/kg/injection, schedule: Q04DX003 (sc), vehicle: distilled water + Tween-80 + alcohol) was 122 % of control, the T/C [1] was 80 % of control and the T/C [2] was 75 % of control.
With `CC1CCC(NC(=O)N(CCCl)N=O)CC1` (stereo unspecified) the T/C (dose: 3.13 mg/kg/injection, schedule: Q01DX010 (sc), vehicle: Klucel (hydroxypropylcellulose) (HPC)) was 67 % of control and the T/C (dose: 6.25 mg/kg/injection, schedule: Q01DX010 (sc), vehicle: Klucel (hydroxypropylcellulose) (HPC)) was 3 % of control.
`CN(C)c1nc(N(C)C)nc(N(C)C)n1` was tested, and the T/C (dose: 12.5 mg/kg/injection, schedule: Q01DX010 (sc), vehicle: saline with Tween-80) was 63 % of control, the T/C (dose: 25.0 mg/kg/injection, schedule: Q01DX010 (sc), vehicle: saline with Tween-80) was 95 % of control and the T/C (dose: 60.0 mg/kg/injection, schedule: Q01DX010 (sc), vehicle: saline with Tween-80) was 51 % of control. The T/C [5] was 121 % of control, the T/C (dose: 120.0 mg/kg/injection, schedule: Q01DX010 (sc), vehicle: saline with Tween-80) was 58 % of control and the T/C [6] was 74 % of control.
`O=P1(N(CCCl)CCCl)NCCCO1` (stereo unspecified) was tested, and the T/C (dose: 25.0 mg/kg/injection, schedule: Q04DX003 (ip), vehicle: saline) was 101 % of control, the T/C (dose: 50.0 mg/kg/injection, schedule: Q04DX003 (ip), vehicle: saline) was 92 % of control and the T/C (dose: 100.0 mg/kg/injection, schedule: Q04DX003 (ip), vehicle: saline) was 77 % of control. The T/C (dose: 200.0 mg/kg/injection, schedule: Q04DX003 (ip), vehicle: saline) was 50 % of control.
With `CC(=O)Nc1cscc1NC(C)=O` the T/C [11] was 89 % of control, the T/C [8] was 121 % of control and the T/C [9] was 111 % of control. The T/C [10] was 110 % of control.
For `O=C1C2CC(Cl)C(SSC3CC4C(=O)N(SC(Cl)(Cl)C(Cl)Cl)C(=O)C4CC3Cl)CC2C(=O)N1SC(Cl)(Cl)C(Cl)Cl` (stereo unspecified), the T/C (dose: 75.0 mg/kg/injection, schedule: Q04DX003 (ip), vehicle: Klucel (hydroxypropylcellulose) (HPC)) was 83 % of control, the T/C (dose: 150.0 mg/kg/injection, schedule: Q04DX003 (ip), vehicle: Klucel (hydroxypropylcellulose) (HPC)) was 102 % of control and the T/C (dose: 300.0 mg/kg/injection, schedule: Q04DX003 (ip), vehicle: Klucel (hydroxypropylcellulose) (HPC)) was 76 % of control. The T/C (dose: 600.0 mg/kg/injection, schedule: Q04DX003 (ip), vehicle: Klucel (hydroxypropylcellulose) (HPC)) was 48 % of control.
With `CN(C)N=Nc1ccc(S(N)(=O)=O)cc1` the T/C (dose: 100.0 mg/kg/injection, schedule: Q01DX010 (sc), vehicle: Klucel (hydroxypropylcellulose) (HPC)) was -13 % of control, the T/C (dose: 100.0 mg/kg/injection, schedule: Q04DX003 (sc), vehicle: Klucel (hydroxypropylcellulose) (HPC)) was 38 % of control and 61 % of control and the T/C (dose: 200.0 mg/kg/injection, schedule: Q01DX010 (sc), vehicle: Klucel (hydroxypropylcellulose) (HPC)) was -72 % of control. The T/C (dose: 200.0 mg/kg/injection, schedule: Q04DX003 (sc), vehicle: Klucel (hydroxypropylcellulose) (HPC)) was 3 % of control and 11 % of control and the T/C (dose: 400.0 mg/kg/injection, schedule: Q01DX010 (sc), vehicle: Klucel (hydroxypropylcellulose) (HPC)) was -100 % of control.
With `C1CN2CN3CCN(CN1C3)C2` the T/C [7] was 68 % of control, the T/C (dose: 200.0 mg/kg/injection, schedule: Q01DX010 (sc), vehicle: saline) was 48 % of control and the T/C (dose: 400.0 mg/kg/injection, schedule: Q01DX010 (sc), vehicle: saline) was 23 % of control.
With `NC(=O)CCC(N)C(=O)O` (stereo unspecified) the T/C (dose: 75.0 mg/kg/injection, schedule: Q04DX003 (ip), vehicle: suspension in saline) was 88 % of control, the T/C (dose: 150.0 mg/kg/injection, schedule: Q04DX003 (ip), vehicle: suspension in saline) was 77 % of control and the T/C (dose: 300.0 mg/kg/injection, schedule: Q04DX003 (ip), vehicle: suspension in saline) was 93 % of control. For the same compound, the T/C (dose: 600.0 mg/kg/injection, schedule: Q04DX003 (ip), vehicle: suspension in saline) was 100 % of control and the T/C (dose: 1200.0 mg/kg/injection, schedule: Q04DX003 (ip), vehicle: suspension in saline) was 87 % of control.
With `CC1=C/C(O)CC(=O)Cc2nc(co2)C(=O)N2CCC=C2C(=O)OC(C(C)C)C(C)/C=C\C(=O)NC/C=C\1` (stereo unspecified) the T/C (dose: 300.0 mg/kg/injection, schedule: Q04DX003 (sc), vehicle: Klucel (hydroxypropylcellulose) (HPC)) was 102 % of control, the T/C (dose: 600.0 mg/kg/injection, schedule: Q04DX003 (sc), vehicle: Klucel (hydroxypropylcellulose) (HPC)) was 90 % of control and the T/C (dose: 1200.0 mg/kg/injection, schedule: Q04DX003 (sc), vehicle: Klucel (hydroxypropylcellulose) (HPC)) was 69 % of control. The T/C (dose: 2400.0 mg/kg/injection, schedule: Q04DX003 (sc), vehicle: Klucel (hydroxypropylcellulose) (HPC)) was 82 % of control.
For `Cc1ccc(S(=O)(=O)N/N=C/C(Br)=C(/Br)C(=O)O)cc1`, the T/C (dose: 1.25 mg/kg/injection, schedule: Q04DX003 (sc), vehicle: saline) was 122 % of control, the T/C (dose: 5.0 mg/kg/injection, schedule: Q04DX003 (sc), vehicle: saline) was 115 % of control and the T/C (dose: 10.0 mg/kg/injection, schedule: Q04DX003 (sc), vehicle: saline) was 82 % of control.
